Converted amounts (≈) assume the structure as drawn.
details: buffer; pH 7.4; 200.0 µM

Structure (SMILES)	solubility kinetic
Cc1c(NC(=O)c2ccc3nsnc3c2)cccc1[N+](=O)[O-]	2.3 µg/mL (≈ 7.32 µM)
CC(=O)N(C)c1ccc(NC(=O)Nc2cccc3ccccc23)cc1	1.3 µg/mL (≈ 3.9 µM)
CC(C)CNC(=O)C(=O)Nc1cc2c3c(c1)CCC(=O)N3CCC2	5 µg/mL (≈ 15.2 µM)
CCC(=O)Nc1ccc(C=C(C(C)=O)C(C)=O)cc1	> 38.9 µg/mL
COc1ccc(C(OC(=O)c2ccco2)C(=O)NC2CCCC2)cc1 (centres undefined)	3.4 µg/mL (≈ 9.9 µM)
O=[N+]([O-])c1ccc(O)c2ncccc12	> 28.5 µg/mL
COc1ccc(NC(=O)c2ccc(N3CCOCC3)nc2)cc1	6.3 µg/mL (≈ 20.1 µM)
COc1ccc(S(=O)(=O)N2CCCc3ccccc32)cc1OC	28.4 µg/mL (≈ 85.2 µM)
CCN1CCN(c2ccc(NC(=O)c3ccco3)cc2)CC1	40.2 µg/mL (≈ 134 µM)
COC(=O)CCC(=O)NC(=S)Nc1ccccc1F	36.8 µg/mL (≈ 129 µM)
CCOc1ccc(S(=O)(=O)N2CCN(C(=O)c3ccco3)CC2)cc1	> 54.7 µg/mL
CC(=O)Oc1ccc(-c2nc3cc(Cl)ccc3c(=O)o2)cc1	1.7 µg/mL (≈ 5.38 µM)
Cc1ccc(C(=O)NCC(=O)OC2CCCCC2=O)cc1C (centres undefined)	> 45.5 µg/mL
O=C(CSc1ncnc2nc[nH]c12)c1ccc([N+](=O)[O-])cc1	2.6 µg/mL (≈ 8.25 µM)
CN(C(=O)COC(=O)c1cc2ccccc2oc1=O)C1CCCCC1	47.7 µg/mL (≈ 139 µM)
O=C(Nc1ccc(C(=O)c2ccccc2)cc1)c1ccccc1	< 0.6 µg/mL
O=C(CSc1ccccc1)Nc1ccc(N2CCOCC2)c(F)c1	2.7 µg/mL (≈ 7.79 µM)
CC(C)CCNC(=O)COc1cccc2c1OC(C)(C)C2	43.4 µg/mL (≈ 149 µM)
O=[N+]([O-])c1ccc(Cl)c(NC(=S)N2CCCC2)c1	9.7 µg/mL (≈ 33.9 µM)
CC(OC(=O)c1cc2ccccc2[nH]1)C(=O)N(C)c1ccccc1 (centres undefined)	3.8 µg/mL (≈ 11.8 µM)
O=C(O)c1ccc(CSc2nc3ccccc3[nH]2)cc1	39.2 µg/mL (≈ 138 µM)
COc1ccc2nc(NC(=O)c3ccccc3F)sc2c1	0.5 µg/mL (≈ 1.65 µM)
COc1cccc(OC)c1C(=O)Nc1ccncc1	19 µg/mL (≈ 73.6 µM)
CSc1sc(C(=O)N(C)C)cc1S(=O)(=O)C(C)C	> 46.1 µg/mL

Structure (SMILES)	solubility kinetic
O=C(/C=C/c1ccc(O)c(O)c1)NC(=O)c1ccccc1O	> 44.9 µg/mL
O=C(NC1CCN(C(=O)NCc2ccccc2)CC1)c1ccccc1	6.2 µg/mL (≈ 18.4 µM)
COC(=O)c1ccc(NC(=O)CCOc2ccccc2)cc1	4.5 µg/mL (≈ 15 µM)
N/C(=N\S(=O)(=O)c1ccc(Cl)cc1)N1CCOCC1	> 45.6 µg/mL
O=C1NC(=O)/C(=C/c2ccc(-c3cc(C(=O)O)ccc3Cl)o2)S1	> 52.5 µg/mL
COc1ccc(C23NCCN2C(=O)c2ccccc23)cc1 (centres undefined)	> 42 µg/mL
Cn1c(O)c(/C=N/N2CCOCC2)c(=O)n(-c2ccccc2)c1=S	> 52 µg/mL
Cc1ccc2c(c1)N(CC(=O)Nc1ccccc1F)C(=O)CO2	0.7 µg/mL (≈ 2.23 µM)
Cc1cc(C)nc(NC(=O)c2ccc(Cl)cc2Cl)n1	42 µg/mL (≈ 142 µM)
CCOC(=O)n1c(=O)n(Cc2ccc(OC)cc2)c2ccccc21	29.5 µg/mL (≈ 90.4 µM)
O=C(CCNC(=O)c1ccccc1Cl)NCC1CCCO1 (centres undefined)	> 46.6 µg/mL
CC(C)NC(=O)N(Cc1ccc(Cl)cc1)Cc1cccs1	37 µg/mL (≈ 115 µM)
NC(=O)C1CCN(C(=O)Cc2ccsc2)CC1	> 37.8 µg/mL
COc1ccc(NC(=O)COc2cccnc2[N+](=O)[O-])cc1OC	> 50 µg/mL
C=CCn1c(O)c(C2=c3ccccc3=NC2=O)c2ccccc21	< 0.3 µg/mL
Cc1ccc(NC(=O)CN(C)C(=O)/C=C/c2ccc3c(c2)OCO3)cc1	6.8 µg/mL (≈ 19.3 µM)
NC(=O)c1sc2nc(-c3cccs3)ccc2c1N	6.1 µg/mL (≈ 22.2 µM)
CC(=O)NCCC(=O)Nc1nc(-c2ccc3ccccc3c2)cs1	6.5 µg/mL (≈ 19.2 µM)
Cc1ccccc1/C=C1\C(=O)Nc2ccc(F)cc21	0.9 µg/mL (≈ 3.55 µM)
CCc1ccc(NC(=O)N[C@H](C(=O)O)C(C)CC)cc1 (some centres undefined)	> 41.8 µg/mL
COc1ccc(CCN(C)CCCC(C#N)(c2cc(OC)c(OC)c(OC)c2)C(C)C)cc1OC.Cl (centres undefined)	> 78.2 µg/mL
Cc1nc2oc3ccccc3c(=O)c2cc1C(=O)O	> 38.3 µg/mL
O=C(NCCNc1ccc(Cl)cc1[N+](=O)[O-])c1ccccc1F	1.5 µg/mL (≈ 4.44 µM)
CN1C(=O)CSC1=Nc1cccc(Cl)c1	34.2 µg/mL (≈ 142 µM)

Structure (SMILES)	solubility kinetic
CC1CC(=O)Nc2ccccc2N1C(=O)Nc1ccc(F)cc1F (centres undefined)	> 49.7 µg/mL
O=C(COc1ccccc1Cl)N1CCCCCCC1	31.4 µg/mL (≈ 111 µM)
CCNC(=S)NNC(=O)c1ccc(S(=O)(=O)NCc2ccco2)cc1	> 57.4 µg/mL
CC(C)c1ccc(NC(=O)Cn2c(=O)oc3ccccc32)cc1	2.1 µg/mL (≈ 6.77 µM)
COc1ccccc1CNC(=O)COC(=O)c1cc(=O)c2ccccc2o1	> 55.1 µg/mL
COc1ccc(C(=O)c2cnc[nH]2)cc1	> 30.3 µg/mL
CO/N=C/c1c(-c2ccc(Cl)cc2)nc2cc(C)ccn12	0.3 µg/mL (≈ 1 µM)
O=C(O)CN1C(=O)/C(=C/c2ccccc2Cl)Oc2ccccc21	> 49.5 µg/mL
COc1cccc(/C=N/c2nc3ccccc3n2C)c1O	23.1 µg/mL (≈ 82.1 µM)
CCOc1ccc(Br)cc1S(=O)(=O)Nc1cccc(S(=O)(=O)Nc2ccccc2C(=O)O)c1	> 83.3 µg/mL
CCOC(=O)/C(C#N)=C1/C=C(C)c2ccccc2N1	0.4 µg/mL (≈ 1.57 µM)
CC1(C)CC(NC(=O)c2cc(Cl)ccc2Cl)CC(C)(C)N1	> 49.4 µg/mL
Oc1c(Cl)cc(Cl)cc1CNc1nccs1	2.9 µg/mL (≈ 10.5 µM)
C=CCN1C(=O)C(Cc2ccccc2Cl)SC1=Nc1ccc(C(=O)O)cc1 (centres undefined)	> 60.1 µg/mL
O=C(NC1CCN(Cc2ccc(Cl)cc2Cl)CC1)c1ccccc1	2.3 µg/mL (≈ 6.33 µM)
Cc1ccc(S(=O)(=O)NCc2ccco2)cc1C(N)=O	> 44.1 µg/mL
O=S(=O)(Nc1ccccc1Cl)c1cccc2nsnc12	> 48.9 µg/mL
Cc1nccc(-c2cccc(NC(=O)Nc3ccc(Cl)cc3)c2)n1	0.6 µg/mL (≈ 1.77 µM)
Cc1c(C)c(C)c(S(=O)(=O)NCCc2ccccn2)c(C)c1C	40.3 µg/mL (≈ 121 µM)
N/C(=N\O)c1cn(Cc2ccccc2Cl)c2ccccc12	39.4 µg/mL (≈ 131 µM)
CCCCc1c(C)nc2c(OC)cccc2c1SCC(=O)O	> 47.9 µg/mL
O=C(COC(=O)Cc1c(F)cccc1Cl)Nc1ccc2[nH]c(=O)[nH]c2c1	> 56.7 µg/mL
CCC(=O)NC1CC2CCCC(C1)N2Cc1ccc(C)cc1 (centres undefined)	> 45.1 µg/mL
Cc1ccccc1-n1ccnc1SCC(=O)Nc1cccc(S(=O)(=O)NC2=NCCC2)c1	> 70.4 µg/mL

Structure (SMILES)	solubility kinetic
O=S(=O)(NC(=S)NC1CCCCC1)c1ccc(Cl)cc1	> 49.9 µg/mL
Cc1ccc(CNC(=O)c2nccnc2C(=O)O)cc1	> 40.7 µg/mL
O=C1CN(C(=O)COC(=O)/C=C/c2ccc(F)cc2)c2ccccc2N1	4.6 µg/mL (≈ 13 µM)
CN1CCN(/N=C/c2ccc(N(C)c3ccccc3)cc2)CC1	> 46.3 µg/mL
CNS(=O)(=O)c1cccc(C(=O)NCC2CCCCC2)c1	> 46.6 µg/mL
CC(OC(=O)c1ccncc1)C(=O)NC1CCCC1 (centres undefined)	> 39.3 µg/mL
COC(=O)c1ccc(NC(=O)C[n+]2ccccc2C)cc1.[Cl-]	> 48.1 µg/mL
O=C(CN1CCCCC1)Nc1ccccc1Cl	26.8 µg/mL (≈ 106 µM)
Cc1ccc(C)c(NC(=S)N2CCN(S(C)(=O)=O)CC2)c1	> 49.1 µg/mL
Br.O=C(Cn1c(NCCO)nc2ccccc21)c1ccc(F)cc1	22.4 µg/mL
O=C(Nc1cccnc1Cl)c1cccs1	> 35.8 µg/mL
CC(=O)Nc1ccc(C(=O)OCC(=O)NCc2ccc3c(c2)OCO3)cc1	8.1 µg/mL (≈ 21.9 µM)
O=[N+]([O-])c1ccc(N2CCCC2)nc1	26.8 µg/mL (≈ 139 µM)
COc1ccc(C2=NOC(C(=O)Nc3cccc(O)c3)C2)cc1 (centres undefined)	22.8 µg/mL (≈ 73 µM)
COc1ccc(C(C)NC(=O)c2ccncc2)cc1 (centres undefined)	36.2 µg/mL (≈ 141 µM)
CC1Cc2cc(/C=C3/SC(=S)N(C)C3=O)ccc2O1 (centres undefined)	< 0.6 µg/mL
CCOc1ccc2nc(N3C(=O)CNC3=S)sc2c1	2.5 µg/mL (≈ 8.52 µM)
Cc1c(C(=O)N(C)Cc2nc3ccccc3c(=O)[nH]2)oc2ccccc12	4.6 µg/mL (≈ 13.2 µM)
CCOC(=O)c1c[nH]c(=S)n1C	> 27.9 µg/mL
COC(=O)c1ccc(C2C(C#N)=C(N)Oc3cc(O)ccc32)cc1 (centres undefined)	46.3 µg/mL (≈ 144 µM)
Cc1ccc(NC(=O)NC(=O)CN2CCC(C(N)=O)CC2)c(C)c1	> 49.9 µg/mL
Cc1ccc(O)c(NC(=O)c2cc(-c3ccco3)on2)c1	1.2 µg/mL (≈ 4.22 µM)
O=C(COC(=O)c1c[nH]c2ccccc12)NC1CCCC1	> 42.9 µg/mL
O=C(Nc1ccccc1)c1ccccc1OCc1ccc(F)cc1	< 0.7 µg/mL

Structure (SMILES)	solubility kinetic
CC(NC(=O)CCNC(=O)c1ccc(C(C)(C)C)cc1)c1ccccc1 (centres undefined)	17.1 µg/mL (≈ 48.5 µM)
COc1ccc(NC(=O)CSc2nnc(N)s2)c([N+](=O)[O-])c1	> 51.2 µg/mL
COc1ccc(OCC(=O)Nc2ccccc2Cl)cc1	4.5 µg/mL (≈ 15.4 µM)
O=C(NCCc1ccncc1)Nc1ccc(F)cc1	> 38.9 µg/mL
CN(C)Cc1c(O)ccc2c(=O)c(-c3ccccc3Cl)coc12	> 49.5 µg/mL
O=[N+]([O-])c1ccc(N2CCN(c3ccccc3)CC2)cc1	< 0.2 µg/mL
CC1CCCCC1NC(=O)CCCN1C(=O)c2ccccc2C1=O (centres undefined)	15.9 µg/mL (≈ 48.4 µM)
Cc1ccccc1OCC(=O)Nc1ccc([N+](=O)[O-])cc1	0.4 µg/mL (≈ 1.4 µM)
CCc1ccc(C(=O)NC(CCSC)C(=O)OC)cc1 (centres undefined)	> 44.3 µg/mL
c1ccc2c(-c3cncc4ccccc34)cncc2c1	32.1 µg/mL (≈ 125 µM)
Cc1ccc(-c2ccc(CCC(=O)O)n2-c2cccc(C(=O)O)c2)cc1	50.4 µg/mL (≈ 144 µM)
Cc1nc(S(=O)(=O)Nc2ccccc2C(=O)NCC2CC2)cn1C	> 52.3 µg/mL
CNc1nc(NCc2ccccc2)nc(N)c1[N+](=O)[O-]	2.8 µg/mL (≈ 10.2 µM)
COc1ccc(NC(=S)Nc2ccc(OC(F)F)cc2)cn1	35 µg/mL (≈ 108 µM)
COc1cccc(CN(C)Cc2c(O)ccc3ccccc23)c1	29.6 µg/mL (≈ 96.3 µM)
O=C(O)c1ccc(NCc2cccs2)cc1	> 35 µg/mL
O=C(c1ncc[nH]1)c1ccccc1Cl	> 31 µg/mL
O=C(NCc1ccccc1)c1cc2ccc(O)cc2oc1=O	6.3 µg/mL (≈ 21.3 µM)
O=C(c1cccs1)N1CCN(S(=O)(=O)c2cccs2)CC1	47.3 µg/mL (≈ 138 µM)
CCc1ccc(S(=O)(=O)Nc2ccc(C)c(NS(C)(=O)=O)c2)cc1	48.6 µg/mL (≈ 132 µM)
CC1CCCC(C)N1CC(O)COC1CCC(C(C)(C)C)CC1.Cl (centres undefined)	46.9 µg/mL
O=C(COc1ccccc1)NCC(=O)NC1CCCCC1	> 43.6 µg/mL
O=C(Nc1cc(S(=O)(=O)Nc2ccc(Cl)cc2)ccc1O)c1ccc(F)cc1F	4.2 µg/mL (≈ 9.57 µM)

Reference: PubChem BioAssay AID1996
